Earlier results in US10987305B2, “Preparation of respirable zafirlukast particles” (Hovione Scientia Limited, priority 2015, dated 2021).

Tests used:
[1] = as disclosed in US 5,504,216 and related patents
[2] = as disclosed in US 5,504,216 and related patents; remark: listed apart in the source

Bioavailability [1] | Physical stability [2] | SMILES
most bioavailable | less physically stable | COc1cc(C(=O)NS(=O)(=O)c2ccccc2C)ccc1Cc1cn(C)c2ccc(NC(=O)OC3CCCC3)cc12 [amorphous form, zafirlukast]
relatively poor bioavailability | physically stable | COc1cc(C(=O)NS(=O)(=O)c2ccccc2C)ccc1Cc1cn(C)c2ccc(NC(=O)OC3CCCC3)cc12 [crystalline anhydrous form, zafirlukast]
relatively poor bioavailability | physically stable | COc1cc(C(=O)NS(=O)(=O)c2ccccc2C)ccc1Cc1cn(C)c2ccc(NC(=O)OC3CCCC3)cc12 [crystalline monohydrate form, zafirlukast]
